pIC50: −log10 of the molar value.
tested on: MV-4-11 cells; test: Cell Viability Assay in MV-4-11 Cells; type: cell-based; conditions: Homo sapiens, MV4-11, 72 h
In short: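 Luminescent ATP read-out (CellTiter-Glo) after 72 h compound treatment of MV-4-11 leukaemia cells (7,000 per well, IMDM plus 10% FBS). Values expressed relative to DMSO control and derived by four-parameter non-linear regression.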

In the case of Cn1cc(-c2ccc(C(=O)N(c3nccc4sc(C(=O)Nc5ccncc5)cc34)[C@@H]3CCCNC3)c(F)c2)nn1 [Example 813, (R)-4-(2-fluoro-4-(1-methyl-1H-1,2,3-triazol-4-yl)-N-(piperidin-3-yl)benzamido)-N-(pyridin-4-yl)thieno[3,2-c]pyridine-2-carboxamide], the pIC50 was 6.26.

same assay, conditions: Homo sapiens, MV4-11, 72 h, MV-4-11 cells, 72 h, Cell-Titer Glo; read-out: IC50

Compared with O=C(c1ccc(-n2nnc3cccnc32)cc1F)N(c1nccc2sc(-c3cccnc3)cc12)[C@@H]1CCCNC1 [Example 364, 2-fluoro-N-[(3R)-3-piperidyl]-N-[2-(3-pyridyl)thieno[3,2-c]pyridin-4-yl]-4-(triazolo[4,5-b]pyridin-3-yl)benzamide], NS(=O)(=O)c1cccc(-c2cc3c(N(C(=O)c4ccc(-n5nnc6cccnc65)cc4F)[C@@H]4CCCNC4)nccc3s2)c1 [Example 446, 2-fluoro-N-[(3R)-3-piperidyl]-N-[2-(3-sulfamoylphenyl)thieno[3,2-c]pyridin-4-yl]-4-(triazolo[4,5-b]pyridin-3-yl)benzamide] is 0.72 log units lower in pIC50: 6.44 for the first, 5.72 for the second. The first is the more potent here.

Compared with CNc1cccnc1Nc1ccc(C(=O)N(c2nccc3cccc(C)c23)[C@@H]2CCCNC2)c(F)c1 [Example 726, (R)-2-fluoro-4-((3-(methylamino)pyridin-2-yl)amino)-N-(8-methylisoquinolin-1-yl)-N-(piperidin-3-yl)benzamide], Cc1cccc2ccnc(N(C(=O)c3ccc(Nc4nccc(CCO)n4)cc3F)[C@@H]3CCCNC3)c12 [Example 736, (R)-2-fluoro-4-((4-(2-hydroxyethyl)pyrimidin-2-yl)amino)-N-(8-methylisoquinolin-1-yl)-N-(piperidin-3-yl)benzamide] is 0.94 log units higher in pIC50: 5.72 for the first, 6.66 for the second. The second is the more potent here.

First: O=C(c1ccc(Nc2ncccn2)cc1F)N(c1nccc2cc(Nc3ncccn3)ccc12)[C@@H]1CCCNC1 [Example 738, (R)-2-fluoro-N-(piperidin-3-yl)-4-(pyrimidin-2-ylamino)-N-(6-(pyrimidin-2-ylamino)isoquinolin-1-yl)benzamide]
Second: Cc1cccc2ccnc(N(C(=O)c3ccc(Nc4nccc(/C=C/CO)n4)cc3F)[C@@H]3CCCNC3)c12 [Example 748, (R,E)-2-fluoro-4-((4-(3-hydroxyprop-1-en-1-yl)pyrimidin-2-yl)amino)-N-(8-methylisoquinolin-1-yl)-N-(piperidin-3-yl)benzamide]
The pIC50 of the first is 1.61 log units lower: 5.43 for the first, 7.04 for the second.

First: Cc1cccc2ccnc(N(C(=O)c3ccc(N4CCOc5cccnc54)cc3F)[C@@H]3CCCNC3)c12 [Example 646, 4-(2,3-dihydropyrido[3,2-b][1,4]oxazin-4-yl)-2-fluoro-N-(8-methyl-1-isoquinolyl)-N-[(3R)-3-piperidyl]benzamide]
Second: COc1cc(-n2nnc3cccnc32)ccc1C(=O)N(c1nccc2cccc(C)c12)[C@@H]1CCCNC1 [Example 308, (R)-4-(3H-[1,2,3]triazolo[4,5-b]pyridin-3-yl)-2-methoxy-N-(8-methylisoquinolin-1-yl)-N-(piperidin-3-yl)benzamide]
The pIC50 of the first is 1.94 log units lower: 5.66 for the first, 7.60 for the second. The second is the more potent here.

COCCCc1nnc(-c2ccc(C(=O)N(c3nccc4cc(C)cc(C)c34)[C@@H]3CCCNC3)cn2)s1 [Example 904, N-(6,8-dimethyl-1-isoquinolyl)-6-[5-(3-methoxypropyl)-1,3,4-thiadiazol-2-yl]-N-[(3R)-3-piperidyl]pyridine-3-carboxamide] and [2H]C([2H])([2H])c1nnc(-c2ccc(C(=O)N(c3nccc4cc(OC)cc(C)c34)[C@@H]3CCCNC3)cn2)s1 [Example 905, N-(6-methoxy-8-methyl-1-isoquinolyl)-N-[(3R)-3-piperidyl]-6-[5-(trideuteriomethyl)-1,3,4-thiadiazol-2-yl]pyridine-3-carboxamide] are within 0.2 log units of each other in pIC50: 7.12 for the first, 7.21 for the second.

Compared with Cc1cc(Cl)cc2ccnc(N(C(=O)c3ccc(-c4cn(C)nn4)cc3F)[C@@H]3CCCNC3)c12 [Example 444, N-(6-chloro-8-methyl-1-isoquinolyl)-2-fluoro-4-(1-methyltriazol-4-yl)-N-[(3R)-3-piperidyl] benzamide], CCn1cc(-c2ccc(C(=O)N(c3nccc4cc(F)cc(C)c34)[C@@H]3CCCNC3)c(F)c2)nn1 [Example 712, 4-(1-ethyltriazol-4-yl)-2-fluoro-N-(6-fluoro-8-methyl-1-isoquinolyl)-N-[(3R)-3-piperidyl]benzamide] is 0.88 log units lower in pIC50: 8.16 for the first, 7.28 for the second. The first is the more potent here.

Going from COc1cc(C(=O)N(c2nccc3cc(Cl)cc(C)c23)[C@@H]2CCCNC2)ccc1-c1nnc(C)s1 [Example 706, (R)—N-(6-chloro-8-methylisoquinolin-1-yl)-3-methoxy-4-(5-methyl-1,3,4-thiadiazol-2-yl)-N-(piperidin-3-yl)benzamide] to CCc1nnc(-c2ccc(C(=O)N(c3nccc4cccc(C)c34)[C@@H]3CCCNC3)cc2)s1 [Example 791, (R)-4-(5-ethyl-1,3,4-thiadiazol-2-yl)-N-(8-methylisoquinolin-1-yl)-N-(piperidin-3-yl) benzamide], the pIC50 rises from 6.38 to 6.85 (0.47 log units).

First: Cc1cnc(-c2ccc3c(N(C(=O)c4ccc(-n5nnc6cccnc65)cc4F)[C@@H]4CCCNC4)nccc3c2)s1 [Example 574, (R)-4-(3H-[1,2,3]triazolo[4,5-b]pyridin-3-yl)-2-fluoro-N-(6-(5-methylthiazol-2-yl)isoquinolin-1-yl)-N-(piperidin-3-yl)benzamide]
Second: CC(C)n1nccc1-c1ccc2c(N(C(=O)c3ccc(-n4nnc5cccnc54)cc3F)[C@@H]3CCCNC3)nccc2c1 [Example 439, (R)-4-(3H-[1,2,3]triazolo[4,5-b]pyridin-3-yl)-2-fluoro-N-(6-(1-isopropyl-1H-pyrazol-5-yl)isoquinolin-1-yl)-N-(piperidin-3-yl)benzamide]
The pIC50 of the first is 0.49 log units higher: 6.41 for the first, 5.92 for the second.

Compared with Cn1cc(-c2ccc(C(=O)N(c3nccc4cc(F)ccc34)[C@@H]3CCCNC3)cc2)nn1 [Example 805, (R)—N-(6-fluoroisoquinolin-1-yl)-4-(1-methyl-1H-1,2,3-triazol-4-yl)-N-(piperidin-3-yl)benzamide], Cn1cc(-c2ccc(C(=O)N(c3nccc4cccc(C=CCO)c34)[C@@H]3CCCNC3)cc2)nn1 (stereo in doubt) [Example 338, (R,Z)—N-(8-(3-hydroxyprop-1-en-1-yl)isoquinolin-1-yl)-4-(1-methyl-1H-1,2,3-triazol-4-yl)-N-(piperidin-3-yl)benzamide] is lower in pIC50: 6.09 for the first, under 5.00 for the second. The first is the more potent here.

First: Cn1cc(-c2ccc(C(=O)N(c3cc(/C=C\CCO)ccn3)[C@@H]3CCCNC3)cc2)nn1 [Example 346, N-[4-[(Z)-4-hydroxybut-1-enyl]-2-pyridyl]-4-(1-methyltriazol-4-yl)-N-[(3R)-3-piperidyl] benzamide]
Second: Cc1cc(C)c2c(N(C(=O)c3ccc(-c4cn(C)nn4)cn3)[C@@H]3CCCNC3)nccc2c1 [Example 703, (R)—N-(6,8-dimethylisoquinolin-1-yl)-5-(1-methyl-1H-1,2,3-triazol-4-yl)-N-(piperidin-3-yl)picolinamide]
The pIC50 of the first is lower: under 5.00 for the first, 7.22 for the second.

Going from COCCCc1ccnc(Nc2ccc(C(=O)N(c3nccc4cccc(C)c34)[C@@H]3CCCNC3)c(F)c2)n1 [Example 752, (R)-2-fluoro-4-((4-(3-methoxypropyl)pyrimidin-2-yl)amino)-N-(8-methylisoquinolin-1-yl)-N-(piperidin-3-yl)benzamide] to Cc1cccc2ccnc(N(C(=O)c3ccc(Nc4nccc(C5CCOCC5)n4)cc3F)[C@@H]3CCCNC3)c12 [Example 663, (R)-2-fluoro-N-(8-methylisoquinolin-1-yl)-N-(piperidin-3-yl)-4-((4-(tetrahydro-2H-pyran-4-yl)pyrimidin-2-yl)amino)benzamide], the pIC50 rises from 6.72 to 6.96 (0.24 log units).

First: O=C(NCCO)c1ccc2c(N(C(=O)c3ccc(-n4nnc5cccnc54)cc3F)[C@@H]3CCCNC3)nccc2c1 [Example 371, (R)-1-(4-(3H-[1,2,3]triazolo[4,5-b]pyridin-3-yl)-2-fluoro-N-(piperidin-3-yl)benzamido)-N-(2-hydroxyethyl) isoquinoline-6-carboxamide]
Second: CC(=O)c1ccc(-c2cc3c(N(C(=O)c4ccc(-n5nnc6cccnc65)cc4F)[C@@H]4CCCNC4)nccc3s2)cc1 [Example 603, N-[2-(4-acetylphenyl)thieno[3,2-c]pyridin-4-yl]-2-fluoro-N-[(3R)-3-piperidyl]-4-(triazolo[4,5-b]pyridin-3-yl) benzamide]
The pIC50 of the first is 0.73 log units lower: 5.89 for the first, 6.62 for the second. The second is the more potent here.

First: Cc1cccc2ccnc(N(C(=O)c3ccc(-c4cncc5c4OCCC5)cc3)[C@@H]3CCCNC3)c12 [Example 922, (R)-4-(3,4-dihydro-2H-pyrano[3,2-c]pyridin-8-yl)-N-(8-methylisoquinolin-1-yl)-N-(piperidin-3-yl)benzamide]
Second: Cc1ncnc(C)c1-c1ccc(C(=O)N(c2nccc3cccc(C)c23)[C@@H]2CCCNC2)c(F)c1 [Example 354, 4-(4,6-dimethylpyrimidin-5-yl)-2-fluoro-N-(8-methyl-1-isoquinolyl)-N-[(3R)-3-piperidyl]benzamide]
The pIC50 of the first is 0.37 log units higher: 6.38 for the first, 6.01 for the second.

First: Cc1nnc(-c2ccc(C(=O)N(c3nccc4scc(C)c34)[C@@H]3CCCNC3)cn2)o1 [Example 919, 6-(5-methyl-1,3,4-oxadiazol-2-yl)-N-(3-methylthieno[3,2-c]pyridin-4-yl)-N-[(3R)-3-piperidyl]pyridine-3-carboxamide]
Second: C#Cc1csc2ccnc(N(C(=O)c3ccc(-c4cn(C)nn4)cc3F)[C@@H]3CCCNC3)c12 [Example 674, (R)—N-(3-ethynylthieno[3,2-c]pyridin-4-yl)-2-fluoro-4-(1-methyl-1H-1,2,3-triazol-4-yl)-N-(piperidin-3-yl)benzamide]
The pIC50 of the first is 0.20 log units lower: 6.80 for the first, 7.00 for the second.

Compared with CCn1cc(-c2ccc(C(=O)N(c3nccc4cc(OC)cc(C)c34)[C@@H]3CCCNC3)c(F)c2)nn1 [Example 863, 4-(1-ethyltriazol-4-yl)-2-fluoro-N-(6-methoxy-8-methyl-1-isoquinolyl)-N-[(3R)-3-piperidyl] benzamide], Cc1cccc2ccnc(N(C(=O)c3cccc(C#CCCC(=O)N4CCOCC4)c3)[C@@H]3CCCNC3)c12 [Example 519, (R)—N-(8-methylisoquinolin-1-yl)-3-(5-morpholino-5-oxopent-1-yn-1-yl)-N-(piperidin-3-yl)benzamide] is 1.17 log units lower in pIC50: 7.54 for the first, 6.37 for the second. The first is the more potent here.

Reference: patent publication US20240400555A1 (Initial Therapeutics, Inc., priority 2023, published 2024)
